US20220153746A1, “NITROGEN OXIDE-DONATING PDE-5 AND/OR PDE-6 INHIBITOR COMPOUNDS, AND USES THEREOF” (ILDONG PHARMACEUTICAL CO., LTD., priority 2020, published 2022)
pIC50: −log10 of the molar value. Read-outs that look alike come from different tables or passages of the source.

Legend:
human PDE-5A1 = human PDE-5A1 (Homo sapiens, UniProt O76074); assay: Human PDE-5A1 inhibition assay (fluorescence polarization, FAM-cGMP); format: biochemical; conditions: for IC50: read-out: IC50 (μM) PDE5A1
human PDE-6C = human PDE-6C (Homo sapiens, UniProt P51160); assay: Human PDE-6C inhibition assay (fluorescence polarization, FAM-cGMP); format: biochemical; conditions: for IC50: read-out: IC50 (μM) PDE6C
human PDE-6C, sequence (P51160 whole entry): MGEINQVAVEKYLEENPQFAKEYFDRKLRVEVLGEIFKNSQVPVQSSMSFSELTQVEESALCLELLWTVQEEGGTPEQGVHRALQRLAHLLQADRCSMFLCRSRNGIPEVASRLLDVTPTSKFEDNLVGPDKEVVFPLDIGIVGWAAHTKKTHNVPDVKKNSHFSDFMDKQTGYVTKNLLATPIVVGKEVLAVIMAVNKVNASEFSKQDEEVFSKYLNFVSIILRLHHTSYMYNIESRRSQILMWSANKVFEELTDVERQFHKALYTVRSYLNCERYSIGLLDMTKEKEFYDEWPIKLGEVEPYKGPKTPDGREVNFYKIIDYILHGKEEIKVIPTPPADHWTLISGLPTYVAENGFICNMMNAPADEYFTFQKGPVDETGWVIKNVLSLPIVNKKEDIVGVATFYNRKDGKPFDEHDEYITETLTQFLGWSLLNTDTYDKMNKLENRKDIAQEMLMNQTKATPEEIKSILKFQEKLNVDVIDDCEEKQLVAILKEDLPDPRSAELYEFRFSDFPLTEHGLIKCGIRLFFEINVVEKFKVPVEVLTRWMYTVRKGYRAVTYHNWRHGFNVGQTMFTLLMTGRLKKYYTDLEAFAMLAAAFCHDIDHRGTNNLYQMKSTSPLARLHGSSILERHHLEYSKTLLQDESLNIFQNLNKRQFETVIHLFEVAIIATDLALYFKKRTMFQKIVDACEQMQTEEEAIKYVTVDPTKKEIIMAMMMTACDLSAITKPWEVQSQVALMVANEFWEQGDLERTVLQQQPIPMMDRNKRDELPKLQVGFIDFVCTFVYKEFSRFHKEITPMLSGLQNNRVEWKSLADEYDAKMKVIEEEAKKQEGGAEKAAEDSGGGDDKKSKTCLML

Row | SMILES | IC50 (human PDE-5A1) [µM] | IC50 (human PDE-6C) [µM] | pIC50 (human PDE-5A1) | pIC50 (human PDE-6C)
1 | CCCc1nn(C)c2c(=O)[nH]c(-c3cc(S(=O)(=O)N4CC(N(C)CCCO[N+](=O)[O-])C4)ccc3OCC)nc12 [Compound 24, 3-((1-((4-ethoxy-3-(1-methyl-7-oxo-3-propyl-6,7-dihydro-1H-pyrazolo[4,3-d]pyrimidin-5-yl)phenyl)sulfonyl)azetidin-3-yl)(methyl)amino)propyl nitrate] | 0.01 to 0.1 | < 0.01 |  | 
2 | CCCc1nn(C)c2c(=O)[nH]c(-c3cc(S(=O)(=O)N4CC(CN)C4)ccc3OCC)nc12 [Compound 5, 5-(5-((3-(aminomethyl)azetidin-1-yl)sulfonyl)-2-ethoxyphenyl)-1-methyl-3-propyl-1,6-dihydro-7H-pyrazolo[4,3-d] pyrimidin-7-one] | > 0.1 | 0.01 to 0.1 |  | 
3 | CCCc1nn(C)c2c(=O)[nH]c(-c3cc(S(=O)(=O)N4CC(N(CCCO[N+](=O)[O-])CCCO[N+](=O)[O-])C4)ccc3OCC)nc12 [Compound 38, ((1-((4-ethoxy-3-(1-methyl-7-oxo-3-propyl-6,7-dihydro-1H-pyrazolo[4,3-d]pyrimidin-5-yl)phenyl)sulfonyl)azetidin-3-yl)azanediyl)bis(propane-3,1-diyl) dinitrate] |  |  | 7.00 to 8.00 | 7.00 to 8.00
4 | CCCc1nn(C)c2c(=O)[nH]c(-c3cc(S(=O)(=O)N4CC(CO[N+](=O)[O-])C4)ccc3OCC)nc12 [Compound 16, (1-((4-ethoxy-3-(1-methyl-7-oxo-3-propyl-6,7-dihydro-1H-pyrazolo[4,3-d]pyrimidin-5-yl)phenyl)sulfonyl)azetidin-3-yl)methyl nitrate] | < 0.01 | 0.01 to 0.1 |  | 
5 | CCCc1nn(C)c2c(=O)[nH]c(-c3cc(S(=O)(=O)NC4CN(CCCO[N+](=O)[O-])C4)ccc3OCC)nc12 [Compound 20, 3-(3-((4-ethoxy-3-(1-methyl-7-oxo-3-propyl-6,7-dihydro-1H-pyrazolo[4,3-d]pyrimidin-5-yl)phenyl)sulfonamido)azetidin-1-yl)propyl nitrate] | 0.01 to 0.1 | < 0.01 |  | 
6 | CCCc1nn(C)c2c(=O)[nH]c(-c3cc(S(=O)(=O)NC4CN(CCCO)C4)ccc3OCC)nc12 [Compound 7, 4-ethoxy-N-(1-(3-hydroxypropyl)azetidin-3-yl)-3-(1-methyl-7-oxo-3-propyl-6,7-dihydro-1H-pyrazolo[4,3-d]pyrimidin-5-yl)benzenesulfonamide] | 0.01 to 0.1 | 0.01 to 0.1 |  | 
7 | CCCc1nn(C)c2c(=O)[nH]c(-c3cc(S(=O)(=O)N4CC(N(C)CCCO)C4)ccc3OCC)nc12 [Compound 13, 5-(2-ethoxy-5-((3-((3-hydroxypropyl)(methyl)amino)azetidin-1-yl)sulfonyl)phenyl)-1-methyl-3-propyl-1,6-dihydro-7H-pyrazolo[4,3-d]pyrimidin-7-one] | < 0.01 | 0.01 to 0.1 |  | 
8 | CCCc1nn(C)c2c(=O)[nH]c(-c3cc(S(=O)(=O)N4CC(O[N+](=O)[O-])C4)ccc3OCC)nc12 [Compound 15, 1-((4-ethoxy-3-(1-methyl-7-oxo-3-propyl-6,7-dihydro-1H-pyrazolo[4,3-d]pyrimidin-5-yl)phenyl)sulfonyl) azetidin-3-yl nitrate] | 0.01 to 0.1 | 0.01 to 0.1 |  | 
9 | CCCc1nn(C)c2c(=O)[nH]c(-c3cc(S(=O)(=O)N4CC(NCCOC(=O)CCCCO[N+](=O)[O-])C4)ccc3OCC)nc12 [Compound 66, 2-((1-((4-ethoxy-3-(1-methyl-7-oxo-3-propyl-6,7-dihydro-1H-pyrazolo[4,3-d]pyrimidin-5-yl)phenyl)sulfonyl)azetidin-3-yl)amino)ethyl 5-(nitrooxy)pentanoate] | < 0.01 | < 0.01 |  | 
10 | CCCc1nn(C)c2c(=O)[nH]c(-c3cc(S(=O)(=O)N4CC(OCCCCO[N+](=O)[O-])C4)ccc3OCC)nc12 [Compound 36, 4-((1-((4-ethoxy-3-(1-methyl-7-oxo-3-propyl-6,7-dihydro-1H-pyrazolo[4,3-d]pyrimidin-5-yl)phenyl)sulfonyl)azetidin-3-yl)oxy)butyl nitrate] | 0.01 to 0.1 | 0.01 to 0.1 |  | 
11 | CCCc1nn(C)c2c(=O)[nH]c(-c3cc(S(=O)(=O)N4CC(OCCO[N+](=O)[O-])C4)ccc3OCC)nc12 [Compound 34, 2-((1-((4-ethoxy-3-(1-methyl-7-oxo-3-propyl-6,7-dihydro-1H-pyrazolo[4,3-d]pyrimidin-5-yl)phenyl)sulfonyl)azetidin-3-yl)oxy)ethyl nitrate] | 0.01 to 0.1 | < 0.01 |  | 
12 | CCCc1nn(C)c2c(=O)[nH]c(-c3cc(S(=O)(=O)N4CC(N5CC(O[N+](=O)[O-])C5)C4)ccc3OCC)nc12 [Compound 39, 1′-((4-ethoxy-3-(1-methyl-7-oxo-3-propyl-6,7-dihydro-1H-pyrazolo[4,3-d]pyrimidin-5-yl)phenyl)sulfonyl)-[1,3′-biazetidin]-3-yl nitrate] | < 0.01 | < 0.01 |  | 
13 | CCCc1nn(C)c2c(=O)[nH]c(-c3cc(S(=O)(=O)N4CC(N5CC(O)C5)C4)ccc3OCC)nc12 [Compound 31, 5-(2-ethoxy-5-((3-hydroxy-[1,3′-biazetidin]-1′-yl)sulfonyl)phenyl)-1-methyl-3-propyl-1,6-dihydro-7H-pyrazolo [4,3-d]pyrimidin-7-one] | 0.01 to 0.1 | < 0.01 |  | 
14 | CCCc1nn(C)c2c(=O)[nH]c(-c3cc(S(=O)(=O)N4CC(CN5CC(CO)C5)C4)ccc3OCC)nc12 [Compound 28, 5-(2-ethoxy-5-((3-((3-(hydroxymethyl)azetidin-1-yl)methyl)azetidin-1-yl)sulfonyl)phenyl)-1-methyl-3-propyl-1,6-dihydro-7H-pyrazolo[4,3-d] pyrimidin-7-one] | 0.01 to 0.1 | 0.01 to 0.1 |  | 
15 | CCCc1nn(C)c2c(=O)[nH]c(-c3cc(S(=O)(=O)N4CC(CCO)C4)ccc3OCC)nc12 [Compound 3, 5-(2-ethoxy-5-((3-(2-hydroxyethyl)azetidin-1-yl)sulfonyl)phenyl)-1-methyl-3-propyl-1,6-dihydro-7H-pyrazolo[4,3-d]pyrimidin-7-one] | < 0.01 | < 0.01 |  | 
16 | CCCc1nn(C)c2c(=O)[nH]c(-c3cc(S(=O)(=O)N4CC(CO)C4)ccc3OCC)nc12 [Compound 2, 5-(2-ethoxy-5-((3-(hydroxymethyl)azetidin-1-yl)sulfonyl)phenyl)-1-methyl-3-propyl-1,6-dihydro-7H-pyrazolo[4,3-d]pyrimidin-7-one] | 0.01 to 0.1 | 0.01 to 0.1 |  | 
17 | CCCc1nn(C)c2c(=O)[nH]c(-c3cc(S(=O)(=O)N4CC(NCCCCO)C4)ccc3OCC)nc12 [Compound 11, 5-(2-ethoxy-5-((3-((4-hydroxybutyl)amino)azetidin-1-yl)sulfonyl)phenyl)-1-methyl-3-propyl-1,6-dihydro-7H-pyrazolo[4,3-d]pyrimidin-7-one] | 0.01 to 0.1 | 0.01 to 0.1 |  | 
18 | CCCc1nn(C)c2c(=O)[nH]c(-c3cc(S(=O)(=O)N4CC(O)C4)ccc3OCC)nc12 [Compound 1, 5-(2-ethoxy-5-((3-hydroxyazetidin-1-yl)sulfonyl)phenyl)-1-methyl-3-propyl-1,6-dihydro-7H-pyrazolo[4,3-d] pyrimidin-7-one] | 0.01 to 0.1 | 0.01 to 0.1 |  | 
19 | CCCc1nn(C)c2c(=O)[nH]c(-c3cc(S(=O)(=O)N4CC(N5CC(CO[N+](=O)[O-])C5)C4)ccc3OCC)nc12 [Compound 40, (1′-((4-ethoxy-3-(1-methyl-7-oxo-3-propyl-6,7-dihydro-1H-pyrazolo[4,3-d]pyrimidin-5-yl)phenyl)sulfonyl)-[1,3′-biazetidin]-3-yl)methyl nitrate] | 0.01 to 0.1 | < 0.01 |  | 
20 | CCCc1nn(C)c2c(=O)[nH]c(-c3cc(S(=O)(=O)N4CC(CCCOC(=O)CCCCO[N+](=O)[O-])C4)ccc3OCC)nc12 [Compound 71, 3-(1-((4-ethoxy-3-(1-methyl-7-oxo-3-propyl-6,7-dihydro-1H-pyrazolo[4,3-d]pyrimidin-5-yl)phenyl)sulfonyl)azetidin-3-yl)propyl 5-(nitrooxy)pentanoate] | < 0.01 | < 0.01 |  | 
21 | CCCc1nn(C)c2c(=O)[nH]c(-c3cc(S(=O)(=O)N4CC(NCCO)C4)ccc3OCC)nc12 [Compound 9, 5-(2-ethoxy-5-((3-((2-hydroxyethyl)amino)azetidin-1-yl)sulfonyl)phenyl)-1-methyl-3-propyl-1,6-dihydro-7H-pyrazolo[4,3-d]pyrimidin-7-one] | 0.01 to 0.1 | 0.01 to 0.1 |  | 
22 | CCCc1nn(C)c2c(=O)[nH]c(-c3cc(S(=O)(=O)N4CC(N(C)CCOC(=O)CCCCC(CO[N+](=O)[O-])O[N+](=O)[O-])C4)ccc3OCC)nc12 (centres unmarked) [Compound 70, 2-((1-((4-ethoxy-3-(1-methyl-7-oxo-3-propyl-6,7-dihydro-1H-pyrazolo[4,3-d]pyrimidin-5-yl)phenyl)sulfonyl)azetidin-3-yl)(methyl)amino)ethyl 6,7-bis(nitrooxy)heptanoate] |  |  | > 8.00 | > 8.00
23 | CCCc1nn(C)c2c(=O)[nH]c(-c3cc(S(=O)(=O)NC4CN(CCO)C4)ccc3OCC)nc12 [Compound 6, 4-ethoxy-N-(1-(2-hydroxyethyl)azetidin-3-yl)-3-(1-methyl-7-oxo-3-propyl-6,7-dihydro-1H-pyrazolo[4,3-d]pyrimidin-5-yl)benzenesulfonamide] | 0.01 to 0.1 | 0.01 to 0.1 |  | 
24 | CCCc1nn(C)c2c(=O)[nH]c(-c3cc(S(=O)(=O)N4CC(N(C)CCCCO)C4)ccc3OCC)nc12 [Compound 14, 5-(2-ethoxy-5-((3-((4-hydroxybutyl)(methyl)amino)azetidin-1-yl)sulfonyl)phenyl)-1-methyl-3-propyl-1,6-dihydro-7H-pyrazolo[4,3-d] pyrimidin-7-one] | < 0.01 | < 0.01 |  | 
25 | CCCc1nn(C)c2c(=O)[nH]c(-c3cc(S(=O)(=O)N4CC(N5CC(CO)C5)C4)ccc3OCC)nc12 [Compound 32, 5-(2-ethoxy-5-((3-(hydroxymethyl)-[1,3′-biazetidin]-1′-yl)sulfonyl)phenyl)-1-methyl-3-propyl-1,6-dihydro-7H-pyrazolo[4,3-d]pyrimidin-7-one] | < 0.01 | 0.01 to 0.1 |  | 
